These results are taken from patent publication US8633245B2, “PAI-1 inhibitor” (Institute of Medicinal Molecular Design, Inc., priority 2008, dated 2014).

Test [1] has as its target T1, recombinant human PAI-1 (Homo sapiens, UniProt P05121).
T1 construct: purchased Molecular Innovations, Inc
The test can be described thus: Test Example 1: human PAI-1 inhibitory activity (tPA fluorogenic substrate, pH 7.5 Tris buffer). The format is biochemical. As to conditions: Tris buffer. The procedure:
50 mM Tris, 150 mM NaCl, 10 μg/ml BSA, 0.01% Tween80 (SIGMA-ALDRICH Corporation)

In test [2] the test system is thrombus in AV shunt. The test can be described thus: Test Example 5: anti-thrombotic activity (rat AV shunt model). The format is in vivo. As to conditions: mean ± S.E., n=5, vehicle 72.7 ± 2.7. As to the method: AV shunt model using 7-week old male Crlj: CD (SD) rats were prepared, and anti thrombotic activities when the compounds according to the present invention were administered orally were examined.
Required amount of the test compounds were weighed and suspended by adding 0.5% CMC (carboxymethylcellulose)-Na solution little by little, and the solutions (10 mg/kg or 30 mg/kg solution) were prepared so that their final concentration became 2 mg/ml or 6 mg/ml using a graduated cylinder. 5 ml was prepared for 1 course.
To 7-week old Crlj: CD (SD) male rats, 5 ml/kg of vehicle (0.5% CMC-Na solution) or 5 ml/kg of the administering solution of the test compound (10 mg/kg or 30 mg/kg) were administered orally for 4 days. The administration on the 4th day was carried out about 1 hour before the following perfusion start.
On the connected part where the silk thread was through, parafilm was wrapped around to avoid blood leakage.
Rats were anesthetized with pentobarbital (50 mg/kg; intraperitoneally). Saline was filled in the above catheter, and each of the ends of the catheter was inserted in right carotid artery and left carotid artery, respectively, and blood was circulated. 30 minutes later, the catheter was pinched with forceps to stop blood flow, and tube parts where the silk thread was through were cut and removed. The silk thread was carefully removed from the tubes, remaining wet weight was weighed after removing the liquid phase with filter paper, and further subtraction of the weight of the silk thread, gave the thrombus weight.
For the thrombus weight in each group, an average value±standard error (S.E.) was calculated. For the significance test between the vehicle administered group and the compound according to the present invention administered group, Dunnett's multiple comparison was carried out (significance level 5%). For the test, the SAS System Release 8.2 (TS2M0) for Windows (Registered Trademark) (SAS Institute Inc.) and its cooperative system EXSAS Ver. 7.10 (Arm Systex Co. Ltd.) were employed.

For test [3], the target named is T1, recombinant human PAI-1. The test can be described thus: Test Example 4: human PAI-1 inhibitory activity (amount of PAI-1 bound to plate-coated tPA, ELISA). It is filed as binding. Particulars: read-out: Inhibition Rate of PAI-1 Activity (%). As to the method:
100 μl of tPA solution, where one-chain recombinant tPA (hereinafter referred to as tPA; American diagnostica, inc.) had been diluted with Buffer A to achieve a concentration of 10 μg/ml, was added to each well of a 96-well plate (Nunc Maxisorp), and the plate was incubated for one night at 4° C. to be coated with tPA. Then, after suction of tPA solution from the 96-well plate, the plate was rinsed successively with Buffer A and Buffer B.
To Buffer B, solutions of the compound according to the present invention dissolved with DMSO (final DMSO concentration: 0.2%) and recombinant human PAI-1 (Molecular Innovations, Inc.) were added. The mixtures were blended so that the final concentrations would be 0.1 to 3.0 μM and 50 ng/ml respectively, and were incubated for 15 minutes on ice. These mixed solutions were added to the rinsed 96-well plate at 100 μl/well, and incubated for 60 minutes at room temperature. To prepare a calibration curve, PAI-1 solutions without the compound according to the present invention (solutions where the final concentrations being 100, 50, 25, 12.5, 6.25, 3.13, or 1.56 ng/ml PAI-1) were added at 100 μl/well, and the plate was incubated for 60 minutes at room temperature, as standard.
After incubation, the reaction mixture was removed by suction, and each well was rinsed with Wash Buffer. Next, anti-human PAI-1 monoclonal antibody (PROGEN Inc.) diluted with Buffer C to be 3.0 μg/ml was added to the 96-well plate at 100 μl/well, and the plate was incubated for 1 hour at room temperature. After rinsing each well with Wash Buffer, alkaline phosphatase-labeled goat anti-mouse IgG (H+L) (Jackson ImmunoResearch, Inc.) diluted with Buffer D to be 0.12 μg/ml was added at 100 μl/well, and the plate was incubated for 1 hour at room temperature. After rinsing each well with Wash Buffer, 1.0 mg/ml p-Nitrophenyl Phosphate (SIGMA) was added to the 96-well plate at 100 μl/well to start the reaction. After 30 to 60 minutes, 25 μl of 0.5 N NaOH was added to stop the reaction, and the absorbance was measured at 405 nm using a multiplate reader (GENios; TECAN G.M.B.H.). Based on the calibration curve prepared from the standard wells, amounts of PAI-1 bound to tPA in the wells that had been treated with the compound according to the present invention were calculated, and the PAI-1 inhibition rates by the compounds according to the present invention were obtained by the following equation. [PAI-1 Inhibition Rate (%)]=[1−(amount of PAI-1 bound to tPA on the well by treatment with the compound according to the present invention)/(amount of PAI-1 bound to tPA on the well by treatment with PAI-1 solution not including the compound according to the present invention (solution having the final concentration of 50 ng/ml PAI-1)]×100

The target of test [4] is T2, recombinant rat PAI-1 (Rattus norvegicus, UniProt P20961).
T2 construct: purchased Molecular Innovations, Inc
T2 sequence (P20961 24-402): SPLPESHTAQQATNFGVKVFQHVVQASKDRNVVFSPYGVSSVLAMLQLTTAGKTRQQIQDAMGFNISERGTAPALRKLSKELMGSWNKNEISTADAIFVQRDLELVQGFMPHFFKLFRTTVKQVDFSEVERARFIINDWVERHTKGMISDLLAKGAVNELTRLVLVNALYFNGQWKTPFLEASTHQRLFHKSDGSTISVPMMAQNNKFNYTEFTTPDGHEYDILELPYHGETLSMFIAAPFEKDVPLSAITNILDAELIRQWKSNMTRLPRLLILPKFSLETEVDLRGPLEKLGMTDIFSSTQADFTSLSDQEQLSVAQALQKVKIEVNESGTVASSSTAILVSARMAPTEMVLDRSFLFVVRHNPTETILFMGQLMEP
Description: Test Example 3: rat PAI-1 inhibitory activity (as Test Example 2 with rat PAI-1). It is filed as biochemical. Particulars: rat PAI-1; for IC50: calculated from the inhibition rates.
Description: To this solution, 6 μl of 80 nM recombinant human PAI-1 (Molecular Innovations, Inc.) solution prepared with Tris buffer was added, and the plate was incubated for 5 minutes at room temperature. Furthermore, 30 μl of 800 IU/ml two-chain tPA (Activity Standard; American diagnostica, inc.) prepared with Tris buffer was added, and the mixed solution was incubated for 15 minutes at room temperature. Then, 30 μl of 400 μM fluorogenic substrate (Pyr-Gly-Arg-MCA; Peptide Institute, Inc.) for tPA prepared with Tris buffer was added and reacted for 30 minutes at room temperature.

Test [5] addresses T1, recombinant human PAI-1. Description: Test Example 2: human PAI-1 inhibitory activity (tPA fluorogenic substrate, pH 7.4 HEPES buffer). It is filed as biochemical. Particulars: for IC50: human PAI-1, calculated from the inhibition rates. As to the method: 0.1 M HEPES, 0.1 M NaCl. 1 mM EDTA. 0.1% Polyethylene glycol 8,000 (Hampton Research Corporation),
2 mM Dimethyldecylphoshine oxide [Apo-10] (Fluka Corporation)

T1 sequence (P05121 24-402): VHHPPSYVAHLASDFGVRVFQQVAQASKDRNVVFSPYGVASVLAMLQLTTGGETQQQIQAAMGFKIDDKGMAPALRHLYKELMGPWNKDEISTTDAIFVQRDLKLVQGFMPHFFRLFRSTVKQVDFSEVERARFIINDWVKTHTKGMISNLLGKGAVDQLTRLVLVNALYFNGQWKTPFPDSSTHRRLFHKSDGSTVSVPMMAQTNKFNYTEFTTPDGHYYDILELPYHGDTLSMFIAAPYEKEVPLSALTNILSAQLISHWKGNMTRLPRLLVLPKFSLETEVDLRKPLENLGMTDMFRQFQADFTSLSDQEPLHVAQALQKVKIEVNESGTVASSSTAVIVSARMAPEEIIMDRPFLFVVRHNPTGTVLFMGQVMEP

As for `CN(C(=O)C(=O)O)c1cc(-c2ccc(OC(F)(F)F)cc2)ccc1OCc1ccc(C(C)(C)C)cc1` [Compound 17], the “Inhibition Rate of PAI-1 Activity (%)” value in test [1] (Compound Concentration 5 μM) is 37%; in test [1] (Compound Concentration 10 μM), 67%; in test [1] (Compound Concentration 25 μM), 97%. For the same molecule, the “Thrombus Weight” value in test [2] (30 mg/kg/day orally for 4 days) worked out at 60.4 ± 3.8 mg.

Turning to `CCC(CC)Oc1ccc(-c2ccc(OC(F)(F)F)cc2)cc1N(CCCc1ccccc1)C(=O)C(=O)O` [Compound 233], the inhibition at 0.3 µM in test [3] (Compound Concentration 0.3 μM) came to 13%; in test [4] (compound concentration 0.3 μM, read-out: Inhibition Rate of PAI-1 Activity (%)), 4%; in test [5] (Compound Concentration 0.3 μM, HEPES buffer, read-out: Inhibition Rate of PAI-1 Activity (%)) it was 9%. The inhibition at 1 µM in test [3] (Compound Concentration 1 μM) came out at 28%; in test [4] (compound concentration 1 μM, read-out: Inhibition Rate of PAI-1 Activity (%)), 20%; in test [5] (Compound Concentration 1 μM, HEPES buffer, read-out: Inhibition Rate of PAI-1 Activity (%)), 55%. For the same molecule, the inhibition at 3 µM in test [3] (Compound Concentration 3 μM) was found to be 50%; in test [4] (compound concentration 3 μM, read-out: Inhibition Rate of PAI-1 Activity (%)), 93%; in test [5] (Compound Concentration 3 μM, HEPES buffer, read-out: Inhibition Rate of PAI-1 Activity (%)), 97%. Moreover, the figures for the half-inhibitory concentration (IC50) in test [4] and in test [5] were 1460 nM and 900 nM, respectively. Besides, the inhibition at 10 µM is above 99% in test [4] (compound concentration 10 μM, read-out: Inhibition Rate of PAI-1 Activity (%)) and 93% in test [1] (Compound Concentration 10 μM, read-out: Inhibition Rate of PAI-1 Activity (%)). The inhibition at 0.1 µM in test [5] (Compound Concentration 0.1 μM, HEPES buffer, read-out: Inhibition Rate of PAI-1 Activity (%)) was 0%. Also, the inhibition at […] in test [1] (Compound Concentration 2.5 μM, read-out: Inhibition Rate of PAI-1 Activity (%)) was determined as 49%. The inhibition at 5 µM in test [1] (Compound Concentration 5 μM, read-out: Inhibition Rate of PAI-1 Activity (%)) worked out at 78%.

For the molecule `CC(C)(C)c1ccc(COc2ccc(-c3ccc(OC(F)(F)F)cc3)cc2CCC(=O)O)cc1` [Compound 5], the “Thrombus Weight” value in test [2] (10 mg/kg/day orally for 4 days) was 57.5 ± 5.0 mg.

`CCN(CC)c1ccc(N(Cc2ccc(C(C)(C)C)cc2)C(=O)C(=O)O)c(-c2ccc(OC(F)(F)F)cc2)c1` [Compound 208]: the inhibition at 1 µM in test [3] worked out at 13%.

`O=C(O)CCc1cc(-c2ccc(OC(F)(F)F)cc2)ccc1OCCCCc1ccccc1` [Compound 102]: the inhibition at 1 µM in test [3] was determined as 0%. For the same molecule, the IC50 in test [4] was 2750 nM; in test [5], 1320 nM.

Consider `CC(C)(C)c1ccc(CN(C(=O)C(=O)O)c2ccc(-c3ccc(OC(F)(F)F)cc3)cc2)cc1` [Compound 129], for which the “Thrombus Weight” value in test [2] (10 mg/kg/day orally for 4 days) is given as 56.7 ± 3.8 mg.
